Consider 1 substance from US11479604B2, “Immunomodulatory peptides and methods for modulating the immune system in a subject” (Recepta Biopharma S.A., priority 2017, dated 2022).

Assay [1] has as its system B16F10-Nex2 melanoma cells. Particulars: as determined in U.S. Pat. No. 9,193,797 B2; cited from earlier work.
Another assay has as its system splenocytes. Description: Splenocyte cytokine production in melanoma-bearing treated mice (ELISA). It counts as in vivo. As to conditions: 300 μg i.p. 5 consecutive days. As for the experimental part: Mice were challenged with 5×10^5 B16F10-Nex2 cells via the i.v. route. […] Peptides at 300 μg solubilized in 10 μl distilled H2O and 90 μl of PBS were injected via i.p. route per animal, for 5 consecutive days initiating one day after tumor cell challenge. Seventeen days after tumor challenge mice were sacrificed and spleens were removed. Splenocytes after incubation in hemolysis buffer were suspended in R10 medium and plated in 6-well plates and 10^6 cells/well. Cells were incubated for 72 h with or without tumor cell lysate (from 10^5 B16F10-Nex2 cells) in triplicate. The supernatants were collected, and cytokines measured by ELISA (FIG. 11).
(ELISA stands for enzyme-linked immunosorbent assay.)

For another assay, the system named is human mo-DC. The assay can be described thus: Expression of MIF receptor and co-receptors by human mo-DC. It counts as cell-based. As for the experimental part: CD44 expression was evaluated by BV-421-labeled monoclonal antibodies and negative controls in the figure refer to unlabeled cells.
Negative controls in the figure refer to unlabeled cells.
The parameters included in the analysis were the expression of HLA-DR (BV-510 labeled mAb), PD-L1 (PE-labeled mAb), CD44 (BV-421-labeled mAb), CD74 (FITC-labeled mAb) and CXCR4 (PE-Cy5-labeled mAb).

Assay [2] has as its system B16F10-Nex2 melanoma cells. Description: Therapeutic adoptive transfer of peptide-stimulated dendritic cells, metastatic melanoma. It counts as in vivo, syngeneic mice. As to conditions: DCs administered 8 days after melanoma challenge; compared to unstimulated or Rb10A1 treated DCs. From the text:
DCs were inoculated s.c. in syngeneic mice, 8 days after the melanoma tumor cell challenge. The B16F10-Nex2 cell lysate was not used to prime DCs in this assay to avoid excess tumor antigen derived from tumor cell lysis in vivo, and a tolerogenic response. Lung nodules of melanoma cells injected i.v. and formed after 7 days and after 12 days, from 3 independent experiments were combined to represent colonization clusters for comparison with the therapeutic experiment of FIG. 6C.

As to [CARGETARATFAYWGQGC], NH2 (C-C) [Rb9], the “in vivo protection against metastatic melanoma by CDRs of RebMab200” value in assay [1] was “displayed this in vivo protection”. Also, in the assay with splenocytes (no stimulus necessary), the “IL-12 production in splenocytes” value is given as “comparable in the three groups”. Further, in the assay with splenocytes (splenocytes with tumor cell lysate 72 h, relative to untreated control), the “IFN-gamma production in splenocytes” value was “increased”. Moreover, in the assay with splenocytes (with tumor cell lysate), the “IL-10 production in splenocytes” value was “no effect” and the “TNF-alpha production in splenocytes” value is listed as “no effect”. In the assay on splenocytes (with tumor cell lysate, relative to untreated control), the “IL-6 production in splenocytes” value was “decreased”. Moreover, the “CD74^lowCXCR4^low cell subpopulation (tSNE analysis)” value with human mo-DC (LPS-stimulated human mo-DC) is “disappearance of a CD74^lowCXCR4^low cell subpopulation”. Also, in the assay with human mo-DC (LPS-stimulated human mo-DC, 16.7% without peptide), the “expression of the MIF co-receptor CXCR4 after treatment” value turned out to be 28.2%. Also, the “expression of the MIF receptor CD74 after treatment” value with human mo-DC (LPS-stimulated human mo-DC, 56.8% without peptide) was 87.5%. Also, the “reduction in CD44 intensity (MFI)” value in the assay on human mo-DC (TGF-beta+IL-10-treated human mo-DC) was determined as 20%. In addition, the “frequency of CD44 positive cells after treatment” value with human mo-DC (TGF-beta+IL-10-treated human mo-DC, 57% without peptide) was found to be 52%. For the same substance, the “protection by peptide-stimulated DCs (lung nodules)” value in assay [2] is “significant protection”.
